Results on four compounds are retold here after PubChem BioAssay AID1259407 (Chemical Carcinogenesis Research Information System (CCRIS), 2018).

In the data set the test system is CCRIS mutagenicity, Ames/micronucleus/aberration tests. Briefly: CCRIS mutagenicity studies.
Setting [1] is: Test System: AMES SALMONELLA TYPHIMURIUM, Strain/Indicator: TA100, Metabolic Activation: NONE, Method: STANDARD PLATE.
Setting [2] is: Test System: UDS RODENT HEPATOCYTES, Strain/Indicator: THY INCORP (NON-S-PHASE), Metabolic Activation: NONE, Method: AUTORADIOGRAPHY

Calls of active or inactive are those of the source. The rule behind the calls is not given here.

Regarding `CN(C)N=Nc1ccc([N+](=O)[O-])cc1`, the mutagenic call (Test System: AMES SALMONELLA TYPHIMURIUM, Strain/Indicator: TA92, Metabolic Activation: MOUSE, LIVER, S-9, POLYCHLORINATED BIPHENYLS, Method: PREINCUBATION) was “active; positive”; the mutagenic call (Test System: AMES SALMONELLA TYPHIMURIUM, Strain/Indicator: TA92, Metabolic Activation: MOUSE, LIVER, S-9, POLYCHLORINATED BIPHENYLS, Method: STANDARD PLATE) was “active; positive”; the mutagenic call (Test System: AMES SALMONELLA TYPHIMURIUM, Strain/Indicator: TA92, Metabolic Activation: NONE, Method: STANDARD PLATE) is “active; positive”; the mutagenic call (Test System: AMES SALMONELLA TYPHIMURIUM, Strain/Indicator: TA97, Metabolic Activation: MOUSE, LIVER, S-9, POLYCHLORINATED BIPHENYLS, Method: PREINCUBATION) was “active; positive”; the mutagenic call (Test System: AMES SALMONELLA TYPHIMURIUM, Strain/Indicator: TA97, Metabolic Activation: MOUSE, LIVER, S-9, POLYCHLORINATED BIPHENYLS, Method: STANDARD PLATE) is “active; positive”; the mutagenic call (Test System: AMES SALMONELLA TYPHIMURIUM, Strain/Indicator: TA97, Metabolic Activation: NONE, Method: STANDARD PLATE) is “active; positive”. For the same compound, the mutagenic call (Test System: AMES SALMONELLA TYPHIMURIUM, Strain/Indicator: TA98, Metabolic Activation: MOUSE, LIVER, S-9, POLYCHLORINATED BIPHENYLS, Method: PREINCUBATION) is “active; positive”; the mutagenic call (Test System: AMES SALMONELLA TYPHIMURIUM, Strain/Indicator: TA98, Metabolic Activation: MOUSE, LIVER, S-9, POLYCHLORINATED BIPHENYLS, Method: STANDARD PLATE) was “active; positive”; the mutagenic call (Test System: AMES SALMONELLA TYPHIMURIUM, Strain/Indicator: TA98, Metabolic Activation: NONE, Method: STANDARD PLATE) is “active; positive”; the mutagenic call (Test System: AMES SALMONELLA TYPHIMURIUM, Strain/Indicator: TA100, Metabolic Activation: MOUSE, LIVER, S-9, POLYCHLORINATED BIPHENYLS, Method: PREINCUBATION) is “active; positive”; the mutagenic call (Test System: AMES SALMONELLA TYPHIMURIUM, Strain/Indicator: TA100, Metabolic Activation: MOUSE, LIVER, S-9, POLYCHLORINATED BIPHENYLS, Method: STANDARD PLATE) is “active; positive”; the mutagenic call under setting [1] was “active; positive”. For the same compound, the mutagenic call (Test System: AMES SALMONELLA TYPHIMURIUM, Strain/Indicator: TA1535, Metabolic Activation: MOUSE, LIVER, S-9, POLYCHLORINATED BIPHENYLS, Method: PREINCUBATION) is “active; positive”; the mutagenic call (Test System: AMES SALMONELLA TYPHIMURIUM, Strain/Indicator: TA1535, Metabolic Activation: MOUSE, LIVER, S-9, POLYCHLORINATED BIPHENYLS, Method: STANDARD PLATE) is “active; positive”; the mutagenic call (Test System: AMES SALMONELLA TYPHIMURIUM, Strain/Indicator: TA1535, Metabolic Activation: NONE, Method: STANDARD PLATE) was “active; positive”; the mutagenic call (Test System: AMES SALMONELLA TYPHIMURIUM, Strain/Indicator: TA1537, Metabolic Activation: MOUSE, LIVER, S-9, POLYCHLORINATED BIPHENYLS, Method: PREINCUBATION) is “active; positive”; the mutagenic call (Test System: AMES SALMONELLA TYPHIMURIUM, Strain/Indicator: TA1537, Metabolic Activation: MOUSE, LIVER, S-9, POLYCHLORINATED BIPHENYLS, Method: STANDARD PLATE) was “active; positive”; the mutagenic call (Test System: AMES SALMONELLA TYPHIMURIUM, Strain/Indicator: TA1537, Metabolic Activation: NONE, Method: STANDARD PLATE) is “active; positive”. Besides, the mutagenic call is “active; positive” (Test System: AMES SALMONELLA TYPHIMURIUM, Strain/Indicator: TA1538, Metabolic Activation: MOUSE, LIVER, S-9, POLYCHLORINATED BIPHENYLS, Method: PREINCUBATION); “active; positive” (Test System: AMES SALMONELLA TYPHIMURIUM, Strain/Indicator: TA1538, Metabolic Activation: MOUSE, LIVER, S-9, POLYCHLORINATED BIPHENYLS, Method: STANDARD PLATE); “active; positive” (Test System: AMES SALMONELLA TYPHIMURIUM, Strain/Indicator: TA1538, Metabolic Activation: NONE, Method: STANDARD PLATE).

Turning to `N[C@@H](CCC(=O)Nc1ccc([N+](=O)[O-])cc1)C(=O)O`, the mutagenic call runs as follows: under setting [1], “inactive; negative”; (Test System: AMES SALMONELLA TYPHIMURIUM, Strain/Indicator: TA100, Metabolic Activation: RAT KIDNEY, MICROSOMES, Method: STANDARD PLATE) “inactive; negative”; (Test System: AMES SALMONELLA TYPHIMURIUM, Strain/Indicator: TA100, Metabolic Activation: RAT LIVER, MICROSOMES, Method: STANDARD PLATE) “inactive; negative”.

As to `Fc1cccc2ncccc12`, the mutagenic call reads like this: (End Point: In vitro chromosomal aberrations, Test System: Chinese hamster lung fibroblast cells (CHL/IU), Metabolic Activation: Rat, liver, S-9) “active; positive, described as marginally clastogenic at non toxic doses. (information d”; (End Point: In vitro micronucleus, Test System: Chinese hamster lung fibroblast cells (CHL/IU), Metabolic Activation: Rat, liver, S-9) “active; positive (information derived from a figure)”; (Test System: AMES SALMONELLA TYPHIMURIUM, Strain/Indicator: TA100, Metabolic Activation: RAT LIVER S-9, PHENOBARBITAL AND 5,6-BENZOFLAVONE, Method: PREINCUBATION) “active; positive”; (Test System: AMES SALMONELLA TYPHIMURIUM, Strain/Indicator: TA100, Metabolic Activation: RAT, LIVER, S-9, AROCLOR 1254, Method: PREINCUBATION) “active; positive”; (Test System: AMES SALMONELLA TYPHIMURIUM, Strain/Indicator: TA100, Metabolic Activation: RAT, LIVER, S-9, PHENOBARBITAL AND 5,6-BENZOFLAVONE, Method: PREINCUBATION) “active; positive”; (Test System: AMES SALMONELLA TYPHIMURIUM, Strain/Indicator: TA100, Metabolic Activation: RAT, LIVER, S-9, PHENOBARBITAL AND 5,6-NAPHTHOFLAVONE, Method: PREINCUBATION) “active; positive”. Besides, the mutagenic call under setting [2] was “active; positive”.

As to `O=C(O)C(F)(F)C(F)(F)C(F)(F)C(F)(F)C(F)(F)C(F)(F)C(F)(F)C(F)(F)C(F)(F)F`, the mutagenic call (Test System: AMES SALMONELLA TYPHIMURIUM, Strain/Indicator: TA98, Metabolic Activation: NONE, Method: PREINCUBATION) is “inactive; negative”; the mutagenic call (Test System: AMES SALMONELLA TYPHIMURIUM, Strain/Indicator: TA98, Metabolic Activation: RAT, LIVER, S-9, Method: PREINCUBATION) is “inactive; negative”; the mutagenic call (Test System: AMES SALMONELLA TYPHIMURIUM, Strain/Indicator: TA100, Metabolic Activation: NONE, Method: PREINCUBATION) was “inactive; negative”; the mutagenic call (Test System: AMES SALMONELLA TYPHIMURIUM, Strain/Indicator: TA100, Metabolic Activation: RAT, LIVER, S-9, Method: PREINCUBATION) was “inactive; negative”; the mutagenic call (Test System: AMES SALMONELLA TYPHIMURIUM, Strain/Indicator: TA1535, Metabolic Activation: NONE, Method: PREINCUBATION) was “inactive; negative”; the mutagenic call (Test System: AMES SALMONELLA TYPHIMURIUM, Strain/Indicator: TA1535, Metabolic Activation: RAT, LIVER, S-9, Method: PREINCUBATION) was “inactive; negative”. Also, the mutagenic call is, setting by setting: (Test System: AMES SALMONELLA TYPHIMURIUM, Strain/Indicator: TA1537, Metabolic Activation: NONE, Method: PREINCUBATION) “inactive; negative”; (Test System: AMES SALMONELLA TYPHIMURIUM, Strain/Indicator: TA1537, Metabolic Activation: RAT, LIVER, S-9, Method: PREINCUBATION) “inactive; negative”; (Test System: AMES SALMONELLA TYPHIMURIUM, Strain/Indicator: TA1538, Metabolic Activation: NONE, Method: PREINCUBATION) “inactive; negative”; (Test System: AMES SALMONELLA TYPHIMURIUM, Strain/Indicator: TA1538, Metabolic Activation: RAT, LIVER, S=9, Method: PREINCUBATION) “inactive; negative”; (Test System: CHINESE HAMSTER OVARY, Strain/Indicator: CHO-K1-BH4 (HGPRT), Metabolic Activation: NONE, Method: STANDARD PLATE) “inactive; negative”; (Test System: CHINESE HAMSTER OVARY, Strain/Indicator: CHO-K1-BH4 (HGPRT), Metabolic Activation: RAT, LIVER, S-9, Method: STANDARD PLATE) “inactive; negative”. The mutagenic call under setting [2] was “inactive; negative”.
